# Assay results reported in patent publication EP2420255A2, “Polypeptide inhibitors of urokinase type plasminogen activator” (Ecole Polytechnique Federale De Lausanne (EPFL), priority 2010, dated 2012).
# Read-outs that look alike come from different tables or passages of the source. Numbered stars: 1 amine (or outer) side, 2 acyl side, 3 side chain; on linkers, the order of the positions; unused ones are H or OH. Bridge positions count the residues as written; N and C are the ends. Ends that are not written are not given here. Peptide text beside a SMILES is read from it. TBMB = c1c(C[*:1])cc(C[*:3])cc1C[*:2]
# How the values were obtained:
# [1] = tested on: murine lung carcinoma model; conditions: literature; cited from earlier work
# uPA [2] = biological target: T1, uPA (Homo sapiens, UniProt P00749); conditions: literature; cited from earlier work
# factor Xa = conditions: literature; cited from earlier work
# tPA = tPA (Homo sapiens, UniProt P00750); conditions: literature; cited from earlier work
# Chain of tPA (P00750 36-562, species assumed): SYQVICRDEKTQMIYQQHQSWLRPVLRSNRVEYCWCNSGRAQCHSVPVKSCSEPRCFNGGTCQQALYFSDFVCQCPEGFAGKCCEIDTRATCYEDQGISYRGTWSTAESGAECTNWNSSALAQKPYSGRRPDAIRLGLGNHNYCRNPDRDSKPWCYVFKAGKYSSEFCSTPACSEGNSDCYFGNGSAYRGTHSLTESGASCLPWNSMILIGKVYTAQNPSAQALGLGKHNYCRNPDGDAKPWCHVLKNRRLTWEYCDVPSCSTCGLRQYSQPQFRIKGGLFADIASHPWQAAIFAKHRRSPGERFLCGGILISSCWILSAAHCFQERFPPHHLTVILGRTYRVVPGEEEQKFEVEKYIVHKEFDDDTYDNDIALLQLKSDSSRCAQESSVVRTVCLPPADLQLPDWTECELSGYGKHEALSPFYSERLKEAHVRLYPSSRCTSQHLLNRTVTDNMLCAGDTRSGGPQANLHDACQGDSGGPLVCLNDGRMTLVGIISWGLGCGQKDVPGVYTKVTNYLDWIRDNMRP
# plasma kallikrein = plasma kallikrein (Homo sapiens, UniProt P03952); conditions: literature; cited from earlier work
# Chain of plasma kallikrein (P03952 391-638 limits assumed, species assumed): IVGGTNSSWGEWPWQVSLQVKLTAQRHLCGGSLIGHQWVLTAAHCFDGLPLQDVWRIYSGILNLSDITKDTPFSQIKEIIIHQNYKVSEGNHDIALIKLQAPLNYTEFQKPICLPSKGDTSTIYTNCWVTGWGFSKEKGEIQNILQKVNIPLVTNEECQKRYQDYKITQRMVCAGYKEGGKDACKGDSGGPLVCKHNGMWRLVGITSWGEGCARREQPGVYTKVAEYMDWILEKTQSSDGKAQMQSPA
# Chain of plasma kallikrein (P03952 20-390 partner limits assumed, species assumed): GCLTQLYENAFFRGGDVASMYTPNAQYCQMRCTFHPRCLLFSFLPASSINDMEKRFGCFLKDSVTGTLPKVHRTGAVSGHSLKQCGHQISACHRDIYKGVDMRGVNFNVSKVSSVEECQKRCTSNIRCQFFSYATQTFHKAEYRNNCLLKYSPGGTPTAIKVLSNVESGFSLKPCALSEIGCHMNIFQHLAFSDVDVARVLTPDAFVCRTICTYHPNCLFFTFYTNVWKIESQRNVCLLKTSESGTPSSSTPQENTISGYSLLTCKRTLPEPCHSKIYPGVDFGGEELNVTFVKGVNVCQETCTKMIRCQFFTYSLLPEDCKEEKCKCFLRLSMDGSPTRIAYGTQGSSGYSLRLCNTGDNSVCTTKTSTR
# thrombin = conditions: literature; cited from earlier work
# uPA [3] = biological target: T1, uPA; conditions: literature, cited from earlier work
# Murine uPA = biological target: T2, Murine uPA (Mus musculus, UniProt P06869); assay: Specificity determination of chemically synthesized inhibitors, residual protease activity; type: biochemical; conditions: murine uPA versus human uPA
# T2 construct: mouse uPA (MUPA-LMW, recombinantly produced in insect cells, 31 kDa); purchased Molecular Innovations, Novi, MI, USA MUPA-LMW; host or cells: insect cells
# T2 sequence (P06869 180-433 limits assumed): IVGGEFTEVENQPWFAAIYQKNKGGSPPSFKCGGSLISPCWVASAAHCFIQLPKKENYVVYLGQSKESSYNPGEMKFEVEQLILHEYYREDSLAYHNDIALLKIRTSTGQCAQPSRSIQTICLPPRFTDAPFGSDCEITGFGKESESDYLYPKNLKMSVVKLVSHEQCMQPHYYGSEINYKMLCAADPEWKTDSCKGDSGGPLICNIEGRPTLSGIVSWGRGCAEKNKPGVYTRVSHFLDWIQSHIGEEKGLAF
# Protocol: (§1) Peptides with a free amine at the N-terminus and an amide at the C-terminus were chemically synthesized on a 50 mg to 1 g scale by solid phase chemistry (JPT Peptide Technologies, Berlin, Germany or GL Biochem Ltd., Shanghai, China). The crude peptides (1 mM) in 1 ml 5% v/v DMSO, 65% v/v 20 mM NH4HCO3, pH 8.0 and 30% v/v ACN, were reacted with TBMB (1.2 mM) for 1 hr at 30 °C. The reaction product was purified by preparative reversed-phase high performance liquid chromatography (HPLC) system (PrepLC 4000, Waters, Millford, MA, USA) and a Vydac C18 (218TP) column (22 x 250 mm) (Grace & Co., USA). At a flow rate of 20 ml/min, a linear gradient was applied with a mobile phase composed of eluant A (0.1% v/v aqueous trifluoroacetic acid (TFA) solution, 99.9 % v/v H2O) and eluant B (94.9% v/v ACN, 5% v/v H2O and 0.1 % v/v TF A). The purified peptides were freeze-dried and dissolved in H2O for activity measurements.
# (§2) Residual activities were measured in buffer containing 10 mM Tris-Cl, pH 7.4, 150 mM NaCl, 10 mM MgCl2, 1mM CaCl2, 0.1% w/v BSA, 0.01% v/v Triton-X100 and 5% v/v DMSO in volume of […]. […] Absorption and fluorescence intensity were measured with a Spectramax absorption plate reader (recording at 410 nm; Molecular Devices, USA) and a Spectramax Gemini fluorescence plate reader (excitation at 355 nm, emission at 460 nm; Molecular Devices, USA), respectively. […]
# MDA-MB-231 cells = assay: Cell viability assay (CellTiter-Glo, ATP concentration); type: cell-based, human; conditions: 24 hrs, UK18 1-100 µM
# Protocol: MDA-MB-231 human breast adenocarcinoma cells (ATCC) were cultured in RPMI medium (RPMI-1640 containing 25 mM HEPES and L-glutamine; NEAA, 100X Stock, and 1 unit/ml penstrep, 20'000 units/ml penicillin and 20'000 units/ml streptomycin stock, Lonza, Visp, Switzerland) supplemented with 5% v/v fetal calf serum (FCS, Lonza) at 37 °C in a humidified 5% CO2/95% air atmosphere.
# The effect of UK18 on the MDA-MB-231 cell viability was measured by using the CellTiter-Glo Luminescent Cell Viability Assay (Promega, Madison, WI, USA). The assay measures the number of viable cells in culture based on the ATP concentration. 200 µL of 2.0 x 10^5 MDA-MB-231 cells/ml in RPMI media (FCS-free) supplemented with 0.2% w/v BSA were inoculated at a density of 4.0 x 10^4 cells per well in 96-well opaque walled polystyrene plate tissue culture treated (Corning Incorporated, Corning, NY, USA) for 24 hrs at 37 °C in a humidified 5% CO2/95% air atmosphere. The culture supernatant was then removed and 100 µl of new RPMI media (FCS-free) supplemented with 0.2% w/v BSA containing different three-fold dilution concentrations of UK18 (1, 3.3, 10, 33 and 100 µM) were added to the cells and the plate incubated for 24 hrs at 37 °C in a humidified 5% CO2/95% air atmosphere. […] The luminescence signal was finally recorded using a Tristar LB 941 microplate reader (Berthold Technologies, Bad Wildbad, Germany). […]
# uPA [4] = biological target: T1, uPA; assay: Activity determination of chemically synthesized inhibitors, residual protease activity; type: biochemical; design: human uPA (UPA-LMW, from human urine, 33 kDa); purchased Molecular Innovations, Novi, MI, USA UPA-LMW; host or cells: human urine; conditions: synthetic peptide-TBMB conjugate, pH 7.4, 25°C
# Protocol: as §1, §2
molecule,measurement,setting,value
"N=C(N)c1ccc(CNC(=O)[C@H](CO)NC(=O)[C@@H](CO)NS(=O)(=O)Cc2ccccc2)cc1 [CJ-463, benzylsulfonyl-D-Ser-Ser-4-amidinobenzylamide]",primary tumour growth and metastasis formation,[1],reduce primary tumour growth and metastasis formation
same,Ki,uPA [2],20 nM
same,inhibition,factor Xa,does not inhibit significantly
same,inhibition,tPA,does not inhibit significantly
same,inhibition,plasma kallikrein,does not inhibit significantly
same,inhibition,thrombin,does not inhibit significantly
CSWRGLENHRMC (cysteine pairing not given here) [upain-1],Ki,uPA [3]; at pH 6.0,6700 nM
same,Ki,uPA [3]; at physiological pH,29900 nM
CC(C)[C@@H]1NC(=O)[C@H](CCC(=O)O)NC(=O)[C@H](Cc2ccc(O)cc2)NC(=O)[C@H](CCCNC(=N)N)NC(=O)[C@H](CO)NC(=O)[C@@H](NC(=O)[C@H](C)N)CSCc2cc3cc(c2)CSC[C@H](NC(=O)[C@H](CC(=O)O)NC1=O)C(=O)N[C@@H](CCCNC(=N)N)C(=O)NCC(=O)N[C@@H](CCCNC(=N)N)C(=O)NCC(=O)N[C@@H](CO)C(=O)N[C@@H](C)C(=O)N[C@H](C(=O)NCC(N)=O)CSC3 [UK18] (H-ACSRYEVDCRGRGSACG-NH2; linker 2-9-16 via TBMB),Ki higher than the Ki of human uPA,Murine uPA,around 1400 times
CC(C)[C@@H]1NC(=O)[C@H](CCC(=O)O)NC(=O)[C@H](Cc2ccc(O)cc2)NC(=O)[C@H](CCCN=C(N)N)NC(=O)[C@H](CO)NC(=O)[C@@H](NC(=O)[C@H](C)N)CSCc2cc3cc(c2)CSC[C@H](NC(=O)[C@H](CC(=O)O)NC1=O)C(=O)N[C@@H](CCCN=C(N)N)C(=O)NCC(=O)N[C@@H](CCCN=C(N)N)C(=O)NCC(=O)N[C@@H](CO)C(=O)N[C@@H](C)C(=O)N[C@H](C(=O)NCC(N)=O)CSC3 [UK18] (H-ACSRYEVDCRGRGSACG-NH2; linker 2-9-16 via TBMB),cell viability,MDA-MB-231 cells,not toxic
same,IC50,uPA [4],47.2 nM
same,Ki,uPA [4]; corresponding to the IC50,30.1 nM
